Test results from EP4696691A1, “TRICYCLIC COMPOUND, AND PREPARATION METHOD THEREFOR AND USE THEREOF” (Shanghai Huilun Pharmaceutical Co., Ltd., priority 2023, dated 2024).
Read-outs that look alike come from different tables or passages of the source.

Experiments:
[1] = target: T1, IRAK4-HiBiT fusion protein (Homo sapiens, UniProt Q9NWZ3); test: Detection of HiBiT-IRAK4 proteolysis levels in K562 IRAK4-HiBiT cells (Nano-Glo HiBiT Lytic assay); format: cell-based
T1 construct: K562 from ATCC
T1 sequence (Q9NWZ3 1-460): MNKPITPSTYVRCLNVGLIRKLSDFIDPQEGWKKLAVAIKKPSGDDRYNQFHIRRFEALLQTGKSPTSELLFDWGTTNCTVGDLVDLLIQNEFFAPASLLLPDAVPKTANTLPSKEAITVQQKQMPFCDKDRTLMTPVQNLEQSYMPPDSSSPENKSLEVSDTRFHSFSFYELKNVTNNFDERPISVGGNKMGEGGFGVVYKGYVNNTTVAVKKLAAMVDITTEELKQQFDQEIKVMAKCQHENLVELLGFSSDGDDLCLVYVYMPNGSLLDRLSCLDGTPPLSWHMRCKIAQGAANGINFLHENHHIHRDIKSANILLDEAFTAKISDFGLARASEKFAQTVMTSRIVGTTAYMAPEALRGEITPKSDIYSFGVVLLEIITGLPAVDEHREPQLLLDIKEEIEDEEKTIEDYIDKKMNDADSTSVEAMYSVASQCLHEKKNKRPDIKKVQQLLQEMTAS
Description: Test Example 1 Detection of HiBiT-IRAK4 proteolysis levels in K562 IRAK4-HiBiT cells co-incubated with compounds of the present application • Reagents, devices, and consumables in experiments: • Nano-Glo Lytic Detection Assay, purchased from Promega; • EnVision, purchased from PerkinElmer; • Name of cell line: K562 IRAK4-HiBiT stable transformation cell strain (capable of stably expressing IRAK4-HiBiT fusion protein), constructed by Shanghai Bioduro Biologics Co., Ltd., where a K562 cell strain was purchased from ATCC. The culture medium is IMDM+10% FBS+1% P/S (volume percentage, where FBS is fetal bovine serum and P/S is Penicillin-Streptomycin, a 1:1 mixture of penicillin and streptomycin antibiotic solution (10,000 units/mL)).
Cell culture: K562 IRAK4-HiBiT cells were incubated at 37°C, and passaged every 2-3 d, with a seeding density of 200,000 cells/mL.
IRAK4-HiBiT proteolysis experiment: • Step 1: Cell seeding and treatment of compound • 1. A 10 mM compound mother liquor was prepared using DMSO, and a compound solution with a working concentration of 1,000 times (the highest working concentration is 10 µM, diluted 3.162 times, with a total of 10 concentration gradients) was prepared using Bravo automatic liquid processing platform. • 2. 40 nL of a compound working solution was transferred to a 384 well plate, and an equal volume of DMSO was added to positive control wells. • 3. 20 µL of a culture solution was added per well and shaken for 10 min. • 4.20 µL of a K562 IRAK4-HiBiT cell suspension was added per well (6,000 cells/well), and an equal volume of culture medium was added to negative control wells. • 5. The well plate was rotated at 1,000 rpm for 1 min. • 6. The cells were incubated in a 5% CO2 incubator at 37°C for 2 h or 6 h. • Step 2: HiBiT Lytic experiment • 1. The well plate was placed at room temperature to equilibrate for 30 min. • 2. 20 µL of Nano-Glo HiBiT Lytic reagent (trade name: Nano-Glo® HiBiT Lytic Detection Reagent) and the well plate was kept in the dark. • 3. The well plate was placed on an orbital shaker at 300 rpm for 5 min. • 4. The cells were incubated at room temperature for 10 min. • 5. The luminous value was read by Envision. • 6. Data was calculated and processed. Degradation degree%=(negative control - experimental well)/(negative control - positive control) * 100%. Using XL-fit software, a degradation curve was obtained by fitting using a 4 Parameter Logistic Model, and the values of Relative DC50 (nM) and Absolute DC50 (nM) were obtained.

[2] = tested on: LPS induced IL-6 release in human PBMC cells; test: Inhibition of LPS induced IL-6 release in human PBMC cells (IL-6 HTRF assay); format: cell-based; conditions: 2 h compound pre-incubation, LPS 5 ng/mL for 4 h, IL-6 in supernatant
Description: I. Recovery and seeding of PBMC, and treatment of compounds (human PBMC cells were purchased from Oricell, item number: Fpb003F)
• 1. Preparation of compounds Sample dilutions of a series of concentrations were obtained by dilution in DMSO using Bravo, and then 80 nL was transferred into a cell plate using ECHO. The final concentration of DMSO in the cell culture medium is 0.1%. • 2. Frozen cells were quickly thawed in a 37°C water bath and stirred continuously. • 3. 25 mL of fresh preheated culture medium was added into a 50 mL centrifuge tube, and then the cells were added dropwise. Then the cells were centrifuged at 2,000 rpm for 10 min. • 4. […] The total number of cells required was calculated based on cell concentration to perform the assay. 7×10e4 cells were added per well (70 µL). • 6. The cell plate was placed and incubated in a 5% CO2 incubator at 37°C for 2 h.
• 1. LPS: A stock solution (1 mg/mL) was diluted in dH2O, aliquoted, and stored at -80°C. • 2. 8-fold LPS was added per well (10 µl/well) (with a final concentration of 5 ng/mL). The cells were incubated in a 5% CO2 incubator at 37°C for 4 h. • 3. 70 µl of supernatant was collected per well using Bravo, and then IL-6 HTRF assay was performed. The supernatant may be stored at -80°C.
1. Preparation of standards and sample dilutions. 2. 16 µL of each sample was taken using Bravo and added to wells. Then 16 µL of each standard was taken and added to corresponding wells. 3.4 µL of a premixed IL6 antibody working solution was added to each of all wells. 4. The cell plate was sealed and incubated at room temperature for 2 h. 5.

[3] = Pharmacokinetic behavior in mice (plasma concentration by LC-MS/MS); format: in vivo; conditions: male ICR mice; for Vd: read-out: Vss
Description: (§1) Three healthy ICR mice (SPF grade, from Beijing Vital River Laboratory Animal Technology Co., Ltd.), male, weighing 18-25 g, were intravenously injected with a compound (1 mg/kg) at a volume of 5 mL/kg. The compound was prepared using 5% DMSO+10% Solutol+85% Saline (w/v), and the animals were not fasted before the experiment.
as §1, with “were intragastrically administered” for “were intravenously injected with”, “compound (5” for “compound (1”, “of 10” for “of 5”
Blood samples (about 0.05 mL each) were collected from the cheeks at 5 min, 15 min, 30 min, 1 h, 2 h, 4 h, 6 h, 8 h, and 24 h after intravenous administration, and at 5 min, 15 min, 30 min, 1 h, 2 h, 4 h, 6 h, 8 h, and 24 h after intragastrical administration, and anticoagulated with heparin sodium. Following collection, the blood samples were placed on ice and the plasma was centrifuged within 1 h (centrifugation conditions: 6,000 g, 3 min, 2 °C to 8°C). The concentration of the compounds in the plasma was determined by liquid chromatography tandem mass spectrometry. The plasma samples were stored in a -80°C freezer before analysis. With plasma concentration data at different time points, pharmacokinetic parameters were calculated by Phoenix WinNonlin8.2.0, and the results are shown in Table 4: Table 4

[4] = 2 h incubation, read-out: Absolute DC50
[5] = 2 h incubation, read-out: Relative DC50
[6] = Intragastric administration (5 mg/kg), 5 mg/kg
[7] = Intravenous injection (1 mg/kg), 1 mg/kg
[8] = Intragastric administration (5 mg/kg)
[9] = Intravenous injection (1 mg/kg)
[10] = mouse, plasma, po, Intragastric administration (5 mg/kg)
[11] = mouse, plasma, po, Intragastric administration (5 mg/kg), read-out: Cmax
[12] = mouse, plasma, Intravenous injection (1 mg/kg)
[13] = mouse, plasma, Intravenous injection (1 mg/kg), read-out: Cmax

| SMILES | Dmax ([1]; 2 h incubation) [%] | DC50 [1, 4] [nM] | DC50 [1, 5] [nM] | AUClast [3, 8] [ng·h/mL] | Cmax [3, 8] [ng/mL] | F% [3, 8] [%] | T1/2 [3, 8] [h] | AUClast [3, 9] [ng·h/mL] | CL [3, 9] [mL/min/kg] | Cmax [3, 9] [ng/mL] | Vss [3, 9] [L/kg] | IC50 [2] [nM] | also measured |
| --- | --- | --- | --- | --- | --- | --- | --- | --- | --- | --- | --- | --- | --- |
| CC(C)(O)c1cc2nn([C@H]3CC[C@H](CCN4CCN5c6ccc(C7CCC(=O)NC7=O)cc6OCC5C4)CC3)cc2cc1NC(=O)c1cccc(C(F)(F)F)n1 (stereo partly drawn) [Compound 1] | – | – | – | 82491 | 5153 | 93.86 | 8.03 | 12937 | 0.905 | 1740 | 1.05 | 1.15 | Dmax ([1]; 6 h incubation): 91.1%; DC50 ([1]; read-out: Absolute DC50, 6 h incubation): 0.61 nM; DC50 ([1]; read-out: Relative DC50, 6 h incubation): 0.46 nM |
| COc1cc2nn([C@H]3CC[C@H](CCN4CCC5(CC4)OCc4cc(C6CCC(=O)NC6=O)ccc45)CC3)cc2cc1NC(=O)c1cccc(C(F)(F)F)n1 (stereo partly drawn) [Compound 46] | – | – | – | 3815 | 207 | 68.7 | 27.3 | 932 | 6.80 | 128 | 21.4 | 13.7 | Dmax ([1]; 6 h incubation): 93.6%; DC50 ([1]; 6 h incubation, read-out: Absolute DC50): 0.92 nM; DC50 ([1]; 6 h incubation, read-out: Relative DC50): 0.79 nM |
| CC(C)(O)c1cc2nn([C@H]3CC[C@H](CCN4CCC5(CC4)OC(=O)c4cc(C6CCC(=O)NC6=O)ccc45)CC3)cc2cc1NC(=O)c1cccc(C(F)(F)F)n1 (stereo partly drawn) [Compound 93] | 94 | 0.74 | 0.93 | – | – | – | – | – | – | – | – | 0.18 | AUC(0-t) [3, 10]: 9150 ng·h/mL; bioavailability [3, 10]: 29.5%; half-life [3, 10]: 4.19 h; Cmax [3, 11]: 844 ng/mL; AUC(0-t) [3, 12]: 6210 ng·h/mL; clearance [3, 12]: 2.98 mL/min/kg; Cmax [3, 13]: 783 ng/mL; Vd [3, 12]: 0.958 L/kg |
| CC(C)Oc1cc2nc([C@H]3CC[C@H](CCN4CCN5c6ccc(C7CCC(=O)NC7=O)cc6OCC5C4)CC3)cn2cc1C(=O)Nc1cnn2cccnc12 (stereo partly drawn) [Compound 100] | 89 | 17.6 | 17.6 | – | – | – | – | – | – | – | – | 0.64 | – |
| CN1C(=O)C2(CCN(CC[C@H]3CC[C@H](n4cc5cc(NC(=O)c6cccc(C(F)(F)F)n6)c(C(C)(C)O)cc5n4)CC3)CC2)c2ccc(C3CCC(=O)NC3=O)cc21 (stereo partly drawn) [Compound 121] | 92 | 14 | 10.8 | – | – | – | – | – | – | – | – | 0.1 | – |

The next lines start with results.

| Dmax ([1]; 2 h incubation) [%] | DC50 [1, 4] [nM] | DC50 [1, 5] [nM] | AUClast [3, 8] [ng·h/mL] | Cmax [3, 8] [ng/mL] | F% [3, 8] [%] | T1/2 [3, 8] [h] | AUClast [3, 9] [ng·h/mL] | CL [3, 9] [mL/min/kg] | Cmax [3, 9] [ng/mL] | Vss [3, 9] [L/kg] | SMILES | IC50 [2] [nM] | also measured |
| --- | --- | --- | --- | --- | --- | --- | --- | --- | --- | --- | --- | --- | --- |
| 93 | 23.7 | 21.4 | – | – | – | – | – | – | – | – | CC(C)(O)c1cc2nn([C@H]3CC[C@H](CCN4CCN5c6ccc(C7(C)CCC(=O)NC7=O)cc6OC[C@H]5C4)CC3)cc2cc1NC(=O)c1cccc(C(F)(F)F)n1 (single isomer, unassigned) [Compound 120-b-2] | 0.75 | AUClast [3, 6]: 24277 ng·h/mL; Cmax [3, 6]: 1790 ng/mL; F% [3, 6]: 98.6%; T1/2 [3, 6]: 9.45 h; AUClast [3, 7]: 4925 ng·h/mL; CL [3, 7]: 3.03 mL/min/kg; Cmax [3, 7]: 725 ng/mL; Vss [3, 7]: 1.80 L/kg |
| 90 | 0.42 | 0.58 | 19336 | 1067 | 31.7 | 17.5 | 8794 | 1.25 | 832 | 1.64 | CC(C)(O)c1cc2nn([C@H]3CC[C@H](CCN4CCN5c6ccc(C7CCC(=O)NC7=O)cc6OC[C@@H]5C4)CC3)cc2cc1NC(=O)c1cccc(C(F)(F)F)n1 (stereo partly drawn) [Compound 1-a] | 0.91 | – |
| 88 | 0.54 | 0.71 | 44547 | 2623 | 79.5 | 15.3 | 11208 | 1.0 | 1083 | 1.23 | CC(C)(O)c1cc2nn([C@H]3CC[C@H](CCN4CCN5c6ccc(C7CCC(=O)NC7=O)cc6OC[C@H]5C4)CC3)cc2cc1NC(=O)c1cccc(C(F)(F)F)n1 (stereo partly drawn) [Compound 1-b] | 0.86 | – |
| 90 | 9.85 | 8.71 | – | – | – | – | – | – | – | – | CC(C)(O)c1cc2nn([C@H]3CC[C@H](CCN4CCN5c6c(F)cc(C7CCC(=O)NC7=O)cc6OCC5C4)CC3)cc2cc1NC(=O)c1cccc(C(F)(F)F)n1 (stereo partly drawn) [Compound 4] | 4.08 | AUC(0-t) [3, 10]: 34200 ng·h/mL; bioavailability [3, 10]: 60.1%; half-life [3, 10]: 14.8 h; Cmax [3, 11]: 2130 ng/mL; AUC(0-t) [3, 12]: 10500 ng·h/mL; clearance [3, 12]: 1.27 mL/min/kg; Cmax [3, 13]: 1320 ng/mL; Vd [3, 12]: 1.07 L/kg |
| 89 | 16.8 | 16.1 | – | – | – | – | – | – | – | – | CC(C)(O)c1cc2nn(C3CCC(CCN4CCN5c6c(F)cc(NC7CCC(=O)NC7=O)cc6OCC5C4)CC3)cc2cc1NC(=O)c1cccc(C(F)(F)F)n1 (stereo not drawn) [Compound 113] | 0.19 | – |
